One experiment deals with FES (Homo sapiens, UniProt P07332). The experiment can be described thus: KiNativ, OCI cells live cell. As to conditions: 2 h, labeling site Lys1, peptide […]. In kind it is cell-based.
For the next experiment, the target named is T1, CSF1R (Homo sapiens, UniProt P07333).
T1 construct: purchased Eurofins DiscoverX
The experiment can be described thus: KdELECT binding assay.

The target of another experiment is CHK1 (Homo sapiens, UniProt O14757). Briefly: KiNativ, OCI cells live cell. Format: cell-based. As to conditions: labeling site Lys2, peptide DIKPENLLLDER
Sequence of CHK1 (O14757 whole entry): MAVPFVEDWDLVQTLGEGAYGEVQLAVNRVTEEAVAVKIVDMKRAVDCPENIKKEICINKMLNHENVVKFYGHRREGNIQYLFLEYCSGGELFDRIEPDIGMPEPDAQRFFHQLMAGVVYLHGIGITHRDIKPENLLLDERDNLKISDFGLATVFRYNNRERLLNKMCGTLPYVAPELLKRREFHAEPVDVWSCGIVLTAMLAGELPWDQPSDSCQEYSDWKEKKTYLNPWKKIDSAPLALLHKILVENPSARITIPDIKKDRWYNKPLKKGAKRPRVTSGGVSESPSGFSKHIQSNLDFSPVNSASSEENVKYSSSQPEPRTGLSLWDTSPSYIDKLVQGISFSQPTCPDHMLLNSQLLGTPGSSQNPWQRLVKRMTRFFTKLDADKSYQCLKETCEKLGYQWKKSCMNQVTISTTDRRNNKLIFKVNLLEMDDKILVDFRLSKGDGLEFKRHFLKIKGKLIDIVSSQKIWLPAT
The target in a further experiment is MAP3K6 (Homo sapiens, UniProt O95382). Briefly: KiNativ, OCI cells live cell. In kind it is cell-based. The settings on record: 2 h, labeling site Lys2, peptide […].
The target of the next experiment is PIP5K3 (Homo sapiens, UniProt Q9Y2I7). Briefly: KiNativ, OCI cells live cell. The settings on record: labeling site ATP, peptide GGKSGAAFYATEDDRFILK
Sequence of PIP5K3 (Q9Y2I7 whole entry): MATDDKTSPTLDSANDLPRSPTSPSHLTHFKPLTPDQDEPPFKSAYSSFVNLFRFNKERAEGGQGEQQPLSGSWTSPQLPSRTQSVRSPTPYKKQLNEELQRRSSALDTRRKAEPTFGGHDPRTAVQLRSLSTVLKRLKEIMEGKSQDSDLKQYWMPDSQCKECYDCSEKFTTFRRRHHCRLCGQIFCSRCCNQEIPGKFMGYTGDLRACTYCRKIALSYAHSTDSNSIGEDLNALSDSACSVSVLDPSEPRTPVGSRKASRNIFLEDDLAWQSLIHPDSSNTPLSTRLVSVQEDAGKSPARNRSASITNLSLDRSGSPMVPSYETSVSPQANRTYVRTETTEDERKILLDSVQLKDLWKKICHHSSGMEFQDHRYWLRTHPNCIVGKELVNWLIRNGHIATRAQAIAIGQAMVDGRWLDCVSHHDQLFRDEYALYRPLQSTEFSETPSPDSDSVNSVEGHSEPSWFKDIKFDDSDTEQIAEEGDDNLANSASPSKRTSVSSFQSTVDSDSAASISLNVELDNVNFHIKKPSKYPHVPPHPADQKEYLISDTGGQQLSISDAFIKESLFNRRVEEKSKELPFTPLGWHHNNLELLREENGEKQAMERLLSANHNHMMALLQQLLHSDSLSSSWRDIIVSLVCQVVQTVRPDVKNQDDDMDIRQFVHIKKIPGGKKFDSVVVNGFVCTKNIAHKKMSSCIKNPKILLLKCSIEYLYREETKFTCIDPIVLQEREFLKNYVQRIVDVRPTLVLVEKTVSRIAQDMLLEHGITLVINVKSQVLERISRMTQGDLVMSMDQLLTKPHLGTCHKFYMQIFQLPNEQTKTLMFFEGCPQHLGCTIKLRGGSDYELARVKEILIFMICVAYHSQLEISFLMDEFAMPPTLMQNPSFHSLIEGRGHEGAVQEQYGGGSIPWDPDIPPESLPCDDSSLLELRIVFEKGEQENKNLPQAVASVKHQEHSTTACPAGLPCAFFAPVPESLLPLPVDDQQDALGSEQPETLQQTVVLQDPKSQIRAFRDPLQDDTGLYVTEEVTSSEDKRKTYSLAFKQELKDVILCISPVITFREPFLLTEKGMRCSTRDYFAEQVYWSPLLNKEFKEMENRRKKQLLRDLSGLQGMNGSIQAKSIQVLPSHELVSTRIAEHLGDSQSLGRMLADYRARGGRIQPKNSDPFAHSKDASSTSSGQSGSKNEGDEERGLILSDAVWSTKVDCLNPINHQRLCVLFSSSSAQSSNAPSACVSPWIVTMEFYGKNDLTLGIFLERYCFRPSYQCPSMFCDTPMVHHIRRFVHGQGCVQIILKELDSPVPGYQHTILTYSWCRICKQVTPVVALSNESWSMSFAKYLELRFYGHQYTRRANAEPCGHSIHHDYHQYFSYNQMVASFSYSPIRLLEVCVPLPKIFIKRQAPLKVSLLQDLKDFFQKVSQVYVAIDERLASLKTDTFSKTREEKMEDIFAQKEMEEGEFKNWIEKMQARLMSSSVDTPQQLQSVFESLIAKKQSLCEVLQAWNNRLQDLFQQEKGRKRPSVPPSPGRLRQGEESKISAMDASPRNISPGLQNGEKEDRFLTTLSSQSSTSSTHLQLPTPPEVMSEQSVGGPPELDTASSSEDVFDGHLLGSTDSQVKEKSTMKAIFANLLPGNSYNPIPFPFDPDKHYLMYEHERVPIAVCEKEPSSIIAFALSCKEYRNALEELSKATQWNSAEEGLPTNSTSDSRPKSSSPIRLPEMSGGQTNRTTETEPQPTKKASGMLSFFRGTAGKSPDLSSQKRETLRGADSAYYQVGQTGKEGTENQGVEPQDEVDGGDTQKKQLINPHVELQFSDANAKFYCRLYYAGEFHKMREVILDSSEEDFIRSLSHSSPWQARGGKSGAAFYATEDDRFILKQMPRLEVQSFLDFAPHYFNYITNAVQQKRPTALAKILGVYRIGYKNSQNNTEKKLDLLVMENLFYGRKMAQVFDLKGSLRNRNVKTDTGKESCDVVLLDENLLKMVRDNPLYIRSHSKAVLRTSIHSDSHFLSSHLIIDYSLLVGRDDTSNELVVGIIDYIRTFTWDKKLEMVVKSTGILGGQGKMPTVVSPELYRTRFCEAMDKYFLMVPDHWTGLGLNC
In kind it is cell-based.

The next experiment deals with LYN (Homo sapiens, UniProt P07948). The experiment can be described thus: KiNativ, OCI cells live cell. In kind it is cell-based. As to conditions: 2 h.
Sequence of LYN (P07948 whole entry): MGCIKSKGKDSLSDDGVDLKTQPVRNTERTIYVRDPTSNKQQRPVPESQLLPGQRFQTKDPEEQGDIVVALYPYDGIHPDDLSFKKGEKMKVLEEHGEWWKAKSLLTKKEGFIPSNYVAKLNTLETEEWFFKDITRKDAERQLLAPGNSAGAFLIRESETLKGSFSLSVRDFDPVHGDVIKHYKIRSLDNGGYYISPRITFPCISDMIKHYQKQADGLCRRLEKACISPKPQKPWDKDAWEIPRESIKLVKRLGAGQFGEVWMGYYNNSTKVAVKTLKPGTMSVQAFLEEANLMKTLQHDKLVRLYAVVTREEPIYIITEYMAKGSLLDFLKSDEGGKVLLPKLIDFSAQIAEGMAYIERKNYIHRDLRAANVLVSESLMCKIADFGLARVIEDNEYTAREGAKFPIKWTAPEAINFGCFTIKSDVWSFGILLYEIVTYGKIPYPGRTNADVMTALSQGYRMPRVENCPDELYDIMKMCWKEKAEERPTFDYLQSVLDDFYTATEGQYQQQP
A further experiment concerns PCTAIRE2, PCTAIRE3. The experiment can be described thus: KiNativ, OCI cells live cell. Format: cell-based, human. As to conditions: labeling site Lys1, peptide SKLTENLVALKEIR
Another experiment concerns the target T2, STLK5 (Homo sapiens, UniProt Q7RTN6).
T2 sequence (Q7RTN6 1-431): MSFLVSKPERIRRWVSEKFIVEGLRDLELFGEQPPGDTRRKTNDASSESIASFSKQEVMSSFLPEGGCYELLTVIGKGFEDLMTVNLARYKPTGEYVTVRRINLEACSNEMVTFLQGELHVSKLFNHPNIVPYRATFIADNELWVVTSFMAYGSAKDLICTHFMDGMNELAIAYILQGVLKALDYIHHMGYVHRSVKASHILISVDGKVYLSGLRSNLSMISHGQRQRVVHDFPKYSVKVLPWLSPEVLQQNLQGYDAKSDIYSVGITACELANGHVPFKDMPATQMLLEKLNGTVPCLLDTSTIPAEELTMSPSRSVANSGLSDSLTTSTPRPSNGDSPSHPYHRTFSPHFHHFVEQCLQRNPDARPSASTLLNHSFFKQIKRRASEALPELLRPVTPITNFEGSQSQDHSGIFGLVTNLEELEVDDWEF
Briefly: KiNativ, OCI cells live cell. Format: cell-based. As to conditions: 2 h, labeling site Lys2, peptide […].

A further experiment deals with T3, ZAP70 (Homo sapiens, UniProt P43403).
T3 sequence (P43403 1-619): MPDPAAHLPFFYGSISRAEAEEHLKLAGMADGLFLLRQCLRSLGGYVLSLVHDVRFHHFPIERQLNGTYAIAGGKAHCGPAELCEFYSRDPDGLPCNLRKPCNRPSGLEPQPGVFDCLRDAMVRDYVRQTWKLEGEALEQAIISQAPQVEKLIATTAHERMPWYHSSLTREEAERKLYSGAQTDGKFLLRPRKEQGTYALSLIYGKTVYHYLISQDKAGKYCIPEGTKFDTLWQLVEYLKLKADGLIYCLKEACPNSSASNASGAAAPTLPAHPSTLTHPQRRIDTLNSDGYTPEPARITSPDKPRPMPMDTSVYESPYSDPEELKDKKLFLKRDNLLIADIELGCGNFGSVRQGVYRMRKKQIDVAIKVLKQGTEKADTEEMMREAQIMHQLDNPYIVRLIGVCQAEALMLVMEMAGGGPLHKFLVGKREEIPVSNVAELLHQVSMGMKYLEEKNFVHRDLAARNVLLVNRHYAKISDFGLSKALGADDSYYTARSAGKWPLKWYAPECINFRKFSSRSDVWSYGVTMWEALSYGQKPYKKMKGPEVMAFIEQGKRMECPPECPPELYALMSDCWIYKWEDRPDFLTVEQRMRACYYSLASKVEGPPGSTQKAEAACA
The experiment can be described thus: KiNativ, OCI cells live cell. As to conditions: 2 h, labeling site Activation Loop. Format: cell-based.

In a further experiment the test system is MARK3, MARK4. Briefly: KiNativ, OCI cells live cell. The settings on record: labeling site Lys1, peptide EVAIKIIDK
Format: cell-based, human.

The next experiment has as its target T4, PLK4 (Homo sapiens, UniProt O00444).
T4 construct: purchased Eurofins DiscoverX
Briefly: KdELECT binding assay.

In the next experiment the target is T5, MLKL (Homo sapiens, UniProt Q8NB16).
T5 sequence (Q8NB16 1-471): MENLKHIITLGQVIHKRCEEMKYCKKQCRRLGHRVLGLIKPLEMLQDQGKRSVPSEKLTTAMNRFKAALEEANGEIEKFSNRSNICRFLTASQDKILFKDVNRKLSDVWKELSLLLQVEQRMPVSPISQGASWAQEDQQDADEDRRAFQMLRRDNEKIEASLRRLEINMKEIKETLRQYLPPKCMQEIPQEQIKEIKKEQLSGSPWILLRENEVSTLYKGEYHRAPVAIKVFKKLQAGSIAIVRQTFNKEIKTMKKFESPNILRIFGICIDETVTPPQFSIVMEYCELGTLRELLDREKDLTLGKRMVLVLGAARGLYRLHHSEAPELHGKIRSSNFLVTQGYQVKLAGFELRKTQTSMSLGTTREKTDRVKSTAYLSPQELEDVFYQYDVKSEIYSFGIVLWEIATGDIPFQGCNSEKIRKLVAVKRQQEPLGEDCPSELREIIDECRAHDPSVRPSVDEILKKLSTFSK
The experiment can be described thus: KiNativ, OCI cells live cell. In kind it is cell-based. As to conditions: 2 h, labeling site Lys1, peptide […].

In another experiment the test system is JNK1, JNK2, JNK3. Briefly: KiNativ, OCI cells live cell. Format: cell-based, human. As to conditions: labeling site Lys2, peptide DLKPSNIVVK
Another experiment deals with T6, CHEK2 (Homo sapiens, UniProt O96017).
T6 construct: purchased Eurofins DiscoverX
T6 sequence (O96017 whole entry): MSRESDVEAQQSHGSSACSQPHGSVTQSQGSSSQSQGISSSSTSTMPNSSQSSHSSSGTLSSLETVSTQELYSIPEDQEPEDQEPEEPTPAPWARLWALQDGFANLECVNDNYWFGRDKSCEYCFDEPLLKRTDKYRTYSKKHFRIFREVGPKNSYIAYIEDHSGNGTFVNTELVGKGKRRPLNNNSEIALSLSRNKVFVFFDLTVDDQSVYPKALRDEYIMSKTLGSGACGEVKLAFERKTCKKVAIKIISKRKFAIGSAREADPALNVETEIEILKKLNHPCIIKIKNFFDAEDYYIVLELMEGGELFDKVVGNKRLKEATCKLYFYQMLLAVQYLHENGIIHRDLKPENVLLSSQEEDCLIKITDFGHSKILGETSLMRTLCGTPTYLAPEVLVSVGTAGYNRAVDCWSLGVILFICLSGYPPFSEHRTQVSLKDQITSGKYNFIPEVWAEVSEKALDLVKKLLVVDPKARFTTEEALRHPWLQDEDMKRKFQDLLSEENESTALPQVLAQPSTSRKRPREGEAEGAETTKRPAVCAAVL
Briefly: KdELECT binding assay.

Read-outs that look alike come from different tables or passages of the source. Bounds are passed on as bounds.

Sequence of FES (P07332 whole entry): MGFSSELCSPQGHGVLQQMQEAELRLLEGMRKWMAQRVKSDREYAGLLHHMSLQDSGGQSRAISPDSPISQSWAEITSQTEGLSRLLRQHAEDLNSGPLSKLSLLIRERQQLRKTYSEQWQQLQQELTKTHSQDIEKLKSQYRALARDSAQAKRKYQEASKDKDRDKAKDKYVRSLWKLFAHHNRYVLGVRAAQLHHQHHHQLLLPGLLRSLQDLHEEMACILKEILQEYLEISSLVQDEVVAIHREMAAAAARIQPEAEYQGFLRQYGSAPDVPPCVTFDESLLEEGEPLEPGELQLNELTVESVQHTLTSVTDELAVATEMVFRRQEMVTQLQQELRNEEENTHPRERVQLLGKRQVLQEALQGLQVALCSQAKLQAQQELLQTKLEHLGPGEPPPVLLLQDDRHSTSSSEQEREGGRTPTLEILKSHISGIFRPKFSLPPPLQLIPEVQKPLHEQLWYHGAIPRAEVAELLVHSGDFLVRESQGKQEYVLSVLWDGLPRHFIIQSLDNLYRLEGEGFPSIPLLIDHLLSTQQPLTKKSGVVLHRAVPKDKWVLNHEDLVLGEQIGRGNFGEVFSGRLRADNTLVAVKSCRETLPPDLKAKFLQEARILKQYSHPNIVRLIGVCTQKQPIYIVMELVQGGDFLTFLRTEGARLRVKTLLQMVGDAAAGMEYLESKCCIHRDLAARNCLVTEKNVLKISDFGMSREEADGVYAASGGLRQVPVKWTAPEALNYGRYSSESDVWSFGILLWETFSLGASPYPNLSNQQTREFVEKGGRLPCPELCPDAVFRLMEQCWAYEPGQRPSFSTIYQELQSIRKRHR

The inhibition is the relative decrease from the control value, in per cent. As a reminder, the Kd is the concentration at which binding is half-saturated. A low value points to higher affinity. Usually Inhibition stands for how much of the control response was suppressed. A high value points to strong suppression. Regarding `CN1CCN(Cc2ccc(Nc3ncc(Cl)c(Nc4ccccc4S(=O)(=O)N(C)C)n3)cc2)CC1` [TP-0903], the inhibition at 0.1 µM was 47.3% against FES; -13.5% at MAP3K6; 19.1% at LYN (labeling site Activation Loop, peptide EGAKFPIKWTAPEAINFGCFTIK); 17.6% at LYN (labeling site Lys1, peptide VAVKTLKPGTMSVQAFLEEANLMK); -46.6% against STLK5; -29.4% on ZAP70 (peptide ISDFGLSKALGADDSYYTAR). Moreover, the inhibition at 0.1 µM on ZAP70 (peptide […], read-out: Inhibition) is -4%; on MLKL, -29.6%. Moreover, the equilibrium dissociation constant (Kd) at CSF1R is 16 nM; at PLK4, less than 5 nM; at CHEK2 it was less than 5 nM. Besides, the Inhibition at CHK1 was 29.7%; on PIP5K3 it was 18.4%; in the experiment on PCTAIRE2, PCTAIRE3, 89.6%; with MARK3, MARK4, 43.9%; in the experiment on JNK1, JNK2, JNK3, 14.0%.

These data come from publication PMC7714403 (JCI Insight, 2020).
